Measurements as given in patent publication US4481200A, “α2 -Adrenoceptor antagonistic benzoquinolizines” (John Wyeth & Brother, Limited, priority 1982, dated 1984).

Columns and labels:
α2-adrenoceptor = biological target: T1, α2-adrenoceptor (Rattus norvegicus, UniProt P22909); experiment: α2-adrenoceptor antagonistic activity on the rat field stimulated vas deferens preparation (clonidine as agonist); settings: antagonism of clonidine, 37°, 90 min after introduction of antagonist, Arunlakshana & Schild, read-out: pA2 (α2) (converted)
T1 construct: from tissue; host or cells: rat vas deferens
T1 sequence (P22909 1-465): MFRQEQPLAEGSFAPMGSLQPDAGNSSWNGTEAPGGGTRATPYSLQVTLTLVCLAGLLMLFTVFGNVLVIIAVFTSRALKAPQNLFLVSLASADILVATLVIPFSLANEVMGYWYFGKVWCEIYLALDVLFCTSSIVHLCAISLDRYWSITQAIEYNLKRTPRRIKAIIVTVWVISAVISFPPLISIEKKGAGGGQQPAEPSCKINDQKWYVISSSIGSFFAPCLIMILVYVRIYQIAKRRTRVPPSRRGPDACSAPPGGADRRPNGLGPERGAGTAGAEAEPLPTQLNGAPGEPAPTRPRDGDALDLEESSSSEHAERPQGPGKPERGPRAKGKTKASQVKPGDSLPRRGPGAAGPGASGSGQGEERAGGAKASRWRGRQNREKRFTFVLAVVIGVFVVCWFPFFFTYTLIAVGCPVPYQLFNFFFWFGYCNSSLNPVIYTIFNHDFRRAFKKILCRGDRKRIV
Experimental: The compounds of the invention were tested for α2 -adrenoceptor antagonistic activity on the rat field stimulated vas deferens preparation using a modification of the method of Drew, Eur. J. Pharmac., 1977, 42, 123-130. The procedure is described below.
Desheathed vasa deferentia from sexually mature rats were suspended in a 6 ml organ bath in Krebs solution at 37° and bubbled with 5% CO2 in oxygen. Platinum ring electrodes were positioned above and below the tissue for field stimulation, The stimulus parameters being 0.1 Hz 1 ms pulse width at supramaximal voltage. Twitch responses were recorded isotonically with a 0.5 g loading. Clonidine hydrochloride was used as the α-adrenoceptor agonist and cumulative concentration-response curves were constructed for the inhibition of twitch obtained with clonidine in the range 0.125 to 4 ng ml^-1. After washing out clonidine, the twitch response quickly recovered and an antagonist was then introduced into the Krebs reservoir. Clonidine concentration-response curves were repeated 90 min after introduction of the antagonist. The concentration of clonidine producing 50% inhibition of twitch before and after introduction of antagonist were obtained and the dose-ratio for clonidine was calculated. Various concentrations of the antagonists were used.
Chemother., 1959, 14, 48-58 and the values of pA2 and slope were calculated.

α1-adrenoceptor [1] = biological target: T2, α1-adrenoceptor (Rattus norvegicus, UniProt P43140); experiment: α1 antagonistic activity on the isolated anococcygeus muscle of the rat (phenylephrine or methoxamine as agonist); settings: antagonism of phenylephrine or methoxamine, rat anococcygeus muscle, 37°, 30 min equilibration, 10^-6 to 10^-4 M; Arunlakshana & Schild; read-out: pA2 (α1) (converted)
T2 construct: One method involves assessing the activity on the isolated anococcygeus muscle of the rat; from tissue; host or cells: rat anococcygeus muscle
T2 sequence (P43140 1-466): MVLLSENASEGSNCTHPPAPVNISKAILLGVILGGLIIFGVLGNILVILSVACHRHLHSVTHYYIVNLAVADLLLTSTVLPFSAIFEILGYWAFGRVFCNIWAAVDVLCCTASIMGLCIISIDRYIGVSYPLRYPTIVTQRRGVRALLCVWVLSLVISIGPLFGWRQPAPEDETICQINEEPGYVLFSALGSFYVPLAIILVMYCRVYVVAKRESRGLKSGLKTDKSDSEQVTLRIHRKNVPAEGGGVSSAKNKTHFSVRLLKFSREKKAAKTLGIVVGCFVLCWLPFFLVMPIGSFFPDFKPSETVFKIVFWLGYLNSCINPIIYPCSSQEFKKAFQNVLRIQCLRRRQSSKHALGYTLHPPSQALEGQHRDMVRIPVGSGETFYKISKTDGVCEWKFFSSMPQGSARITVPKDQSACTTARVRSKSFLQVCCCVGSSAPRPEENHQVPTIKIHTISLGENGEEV
Excerpt: (§1) The compounds of the invention antagonise the α2 -adrenoceptors to a much greater extent than the α1 -adrenoceptors. The α1 antagonistic activity can be evaluated by a number of different methods. One method involves assessing the activity on the isolated anococcygeus muscle of the rat. The method is based on that of Gillespie, Br.J.Pharmac., 1972, 45, 404-416. In the procedure male rats (250-360 g) are killed by a blow on the head and bled. The two anococcygeus muscles are removed from their position in the midline of the pelvic cavity, where they arise from the upper coccygeal vertebrae. The muscles are suspended in 5 ml organ baths in Krebs solution containing 10^-4 M ascorbic acid, to prevent drug oxidation. The tissues are gassed with a 95% oxygen, 5% CO2 mixture and maintained at 37°. Longitudinal muscle contractions are recorded using isotonic transducers. Cumulative dose response curves are then obtained to phenylephrine or in some cases methoxamine, both agents being […] alpha adrenoceptor agonists. The concentration range of phenylephrine or methoxamine used is 0.02 to 0.8 μg.ml^-1. The agonist is then washed from the bath and the test drug added to the bathing medium at a concentration of 10^-6 M. After 30 min equilibration with the test drug a further agonist dose response curve is obtained. The washing, equilibration and agonists dosing procedures are then repeated using 10^-5 M and 10^-4 M solutions of the test drug. Estimates of the pA2 value for the test drug as an antagonist of phenylephrine or methoxamine were made from the agonist dose-ratios using the method of Arunlakshana & Schild, Br.J.Pharmac. Chemother., 1959, 14, 48-58.

α1-adrenoceptor [2] = experiment: as above; settings: antilog of (α2 pA2-α1 pA2)
Excerpt: as §1

Kb (α2-adrenoceptor) [nM]	Kb (α1-adrenoceptor [1]) [nM]	SMILES	α2/α1 selectivity (α1-adrenoceptor [2])
37.2	363	CC(C)NS(=O)(=O)N(C)[C@@H]1CCN2CCc3ccccc3[C@@H]2C1 (relative stereo) [Example 4, N-(i-Propyl)-N'-(1,3,4,6,7,11bα-hexahydro-2H-benzo[a]quinolizin-2β-yl)-N'-methylsulphamide]	10
55	2510	CN(C)CCS(=O)(=O)N(C)[C@@H]1CCN2CCc3ccccc3[C@@H]2C1 (relative stereo) [Example 3, N-Methyl-N-(1,3,4,6,7,11bα-hexahydro-2H-benzo[a]quinolizin-2β-yl)-2-dimethylaminoethanesulphonamide]	46
39.8	1120	CN(C)S(=O)(=O)N(C)[C@@H]1CCN2CCc3ccccc3[C@@H]2C1 (relative stereo) [Example 2, N,N,N'-Trimethyl-N'-[1,3,4,6,7,11bα-hexahydro-2H-benzo[a]quinolizin-2β-yl]sulphamide]	28
36.3	646	CNS(=O)(=O)N(C)[C@@H]1CCN2CCc3ccccc3[C@@H]2C1 (relative stereo) [Example 1, N-Methyl-N-(1,3,4,6,7,11bα-hexahydro-2H-benzo[a]quinolizin-2β-yl)-N'-methylsulphamide]	18
